Legend:
Format in all cases: in vivo
[1] = system: Plutella maculipennis; experiment: Plutella test (cabbage leaves dipped, caterpillars placed on them); settings: cabbage leaves (Brassica oleracea) dipped; concentration and time not stated; compared with prior art
Source text: Lösungsmittel: 3 Gewichtsteile Dimethylformamid Emulgator : -1 Gewichtsteil Alkylarylpolyglykolether
(§1) Zur Herstellung einer zweckmäßigen Wirkstoffzubereitung vermischt man 1 Gewichtsteil Wirkstoff mit der angegebenen Menge Lösungsmittel und der angegebenen Menge Emulgator und verdünnt das Konzentrat mit Wasser auf die gewünschte Konzentration.
Kohlblätter (Brassica oleracea) werden durch Tauchen in die Wirkstoffzubereitung der gewünschten Konzentration behandelt und mit Raupen der Kohlschabe (Plutella maculipennis) besetzt, solange die Blätter noch feucht sind.
Nach der gewünschten Zeit wird die Abtötung in % bestimmt. Dabei bedeutet 100 %, daß alle Raupen abgetötet wurden; 0 % bedeutet, daß keine Raupen abgetötet wurden.

[2] = system: Tetranychus urticae; experiment: Tetranychus test (resistant), infested bean plants dipped; settings: bean plants (Phaseolus vulgaris) dipped; all stages of mites; concentration and time not stated; compared with prior art
Source text: Lösungsmittel: 3 Gewichtsteile Dimethylformamid Emulgator: . 1 Gewichtsteil Alkylarylpolyglykolether
as §1
Bohnenpflanzen (Phaseolus vulgaris), die stark von allen Entwicklungsstadien der gemeinen Spinnmilbe oder Bohnenspinnmilbe (Tetranychus urticae) befallen sind, werden durch Tauchen in die Wirkstoffzubereitung der gewünschten Konzentration behandelt.
Nach der gewünschten Zeit wird die Abtötung in % bestimmt. Dabei bedeutet 100 %, daß alle Spinnmilben abgetötet wurden; 0 % bedeutet, daß keine Spinnmilben abgetötet wurden.

[3] = system: Phorbia antiqua (im Boden); experiment: Limit concentration test / soil insects; settings: compound mixed into soil; insects added after 24 hours, evaluated after 2 to 7 more days; concentration not given
Source text: Testinsekt: Phorbia antiqua (im Boden) Lösungsmittel: 3 Gewichtsteile Aceton Emulgator: 1 Gewichtsteil Alkylarylpolyglykolether
(§2) Zur Herstellung einer zweckmäßigen Wirkstoffzubereitung vermischt man 1 Gewichtsteil Wirkstoff mit der angegebenen Menge Lösungsmittel, gibt die angegebene Menge Emulgator zu und verdünnt das Konzentrat mit Wasser auf die gewünschte Konzentration.
Die Wirkstoffzubereitung wird innig mit dem Boden vermischt. Dabei spielt die Konzentration des Wirkstoffs in der Zubereitung praktisch keine Rolle, entscheidend ist allein die Wirkstoffgewichtsmenge pro Volumeneinheit Boden, welche in ppm (= mg/1) angegeben wird. Man füllt den Boden in Töpfe und läßt diese bei Raumtemperatur stehen.
Nach 24 Stunden werden die Testtiere in den behandelten Boden gegeben und nach weiteren 2 bis 7 Tagen wird der Wirkungsgrad des Wirkstoffs durch Auszählen der toten und lebenden Testinsekten in % bestimmt, Der Wirkungsgrad ist 100 %, wenn alle Testinsekten abgetötet worden sind, er ist O %, wenn noch genau so viele Testinsekten leben wie bei der unbehandelten Kontrolle.

[4] = system: Myzus pesicae; experiment: Limit concentration test / root-systemic action (Myzus); settings: compound mixed into soil, cabbage; leaves infested after 7 days, evaluated after 2 more days; concentration not given
Source text: Testinsekt: Myzus pesicae Lösungsmittel: 3 Gewichtsteile Aceton Emulgator: 1 Gewichtsteil Alkylarylpolyglykolether
as §2
Die Wirkstoffzubereitung wird innig mit Boden vermischt. Dabei spielt die Konzentration des Wirkstoffs in der Zubereitung praktisch keine Rolle, entscheidend ist allein die Wirkstoffgewichtsmenge pro Volumeneinheit Boden, welche in ppm (= mg/1) angegeben wird. Man füllt den behandelten Boden in Töpfe und bepflanzt diese mit Kohl (Brassica oleracea). Der Wirkstoff kann so von den Pflanzenwurzeln aus dem Boden aufgenommen und in die Blätter transportiert werden.
Für den Nachweis des wurzelsystemischen Effektes werden nach 7 Tagen ausschließlich die Blätter mit den obengenannten Testtieren besetzt. Nach weiteren 2 Tagen erfolgt die Auswertung durch Zählen oder Schätzen der toten Tiere. Aus den Abtötungszahlen wird die wurzelsystemische Wirkung des Wirkstoffs abgeleitet. Sie ist 100 %, wenn alle Testtiere abgetötet sind und 0 %, wenn noch genau so viele Testinsekten leben wie bei der unbehandelten Kontrolle.

[5] = system: Lucilia cuprina res.-Larven; experiment: Test with Lucilia cuprina res. larvae; settings: Wirkstoffkonzentration 1000 ppm, after 24 hours, read-out: Abtötung
Procedure: Emulgator: 35 Gewichtsteile Ethylenglkolmonomethylether 35 Gewichtsteile Nonylphenolpolyglykolether
Zur Herstellung einer zweckmäßigen Wirkstoffzubereitung vermischt man drei Gewichtsteile Wirkstott mit sieben Gewichtsteilen des oben angegebenen Lösungsmittel-Gemisches und verdünnt das so erhaltene Konzentrat mit Wasser auf die jeweils gewünschte Konzentration.
Etwa 20 Lucilia cuprina res.-Larven werden in ein Teströhrchen gebracht, welches ca. 1 cm^2 Pferdefleisch und 0,5 ml der Wirkstoffzubereitung enthält. Nach 24 Stunden wird der Abtötungsgrad bestimmt.

SMILES	Wirksamkeit gegenüber dem Stand der Technik (Abtötung in %) [1]	Wirksamkeit gegenüber dem Stand der Technik (Abtötung in %) [2]	Wirkungsgrad gegenüber dem Stand der Technik [3]	wurzelsystemische Wirkung gegenüber dem Stand der Technik [4]	mortality at 1000 µg/mL [5]
CC(=O)OC(C(N)=O)(C(N)=O)c1ccc(Cl)c(Cl)c1 [Beispiel 4, 3,4-Dichlorphenylacetoxymalonsäurediamid]	überlegene Wirksamkeit gegenüber dem Stand der Technik	–	–	–	–
NC(=O)C(O)(C(=O)NC=O)c1ccc(Cl)c(Cl)c1 (centres unmarked) [Beispiel 37, 3,4-Dichlorphenylhydroxymalonsäureamidformylamid]	überlegene Wirksamkeit gegenüber dem Stand der Technik	überlegene Wirksamkeit gegenüber dem Stand der Technik	–	–	–
COC(C(N)=O)(C(N)=O)c1ccc(Cl)c(Cl)c1 [Beispiel 1, 2-(3,4-Dichlorphenyl)-2-methoxy-malonsäurediamid]	überlegene Wirksamkeit gegenüber dem Stand der Technik	überlegene Wirksamkeit gegenüber dem Stand der Technik	überlegene Wirkung gegenüber dem Stand der Technik	überlegene Wirkung gegenüber dem Stand der Technik	–
CC(=O)NC(=O)C(OC(=O)c1ccccc1)(C(=O)NC(C)=O)c1ccc(Cl)c(Cl)c1 [Beispiel 41, 3,4-Dichlorphenylbenzoyloxymalonsäurebisacetylamid]	überlegene Wirksamkeit gegenüber dem Stand der Technik	überlegene Wirksamkeit gegenüber dem Stand der Technik	–	–	–
CC(C)(C)NC(=O)C(O)(C(=O)NC(C)(C)C)c1ccccc1 [Beispiel 52, Phenylhydroxymalonsäure-bis-tert.-butylamid]	–	–	–	überlegene Wirkung gegenüber dem Stand der Technik	–
NC(=O)C(OC(=O)c1ccccc1Cl)C(=O)Nc1ccc(Cl)c(Cl)c1 (centres unmarked) [Beispiel 2, 3,4-Dichlorphenyl-(2-chlorbenzoyloxy)-malonsäurediamid]	überlegene Wirksamkeit gegenüber dem Stand der Technik	–	–	–	–
NC(=O)C(O)(C(=O)[O-])c1ccccc1.[Na+] (centres unmarked) [Beispiel 33, Mononatriumsalzes des Phenylhydroxymalonsäuremonoamids]	–	–	–	überlegene Wirkung gegenüber dem Stand der Technik	–
CNS(=O)(=O)OC(C(N)=O)(C(N)=O)c1ccc(Cl)c(Cl)c1 [Beispiel 5, 3,4-Dichlorphenylmethylsulfamoyloxymalonsäurediamid]	überlegene Wirksamkeit gegenüber dem Stand der Technik	überlegene Wirksamkeit gegenüber dem Stand der Technik	–	–	–
CC(=O)NC(=O)C(OC(C)=O)(C(N)=O)c1ccc(Cl)c(Cl)c1 (centres unmarked) [Beispiel 39, 3,4-Dichlorphenylacetoxy-malonsäureamidacetylamid]	überlegene Wirksamkeit gegenüber dem Stand der Technik	überlegene Wirksamkeit gegenüber dem Stand der Technik	überlegene Wirkung gegenüber dem Stand der Technik	–	–
NC(=O)C(OSC(F)(Cl)Cl)(C(N)=O)c1ccc(Cl)c(Cl)c1 [Beispiel 36, 3,4-Dichlorphenyl-dichlorfluormethylsulfenyloxy-malonsäurediamid]	überlegene Wirksamkeit gegenüber dem Stand der Technik	überlegene Wirksamkeit gegenüber dem Stand der Technik	–	–	–
C[Si](C)(C)NC(=O)C(O[Si](C)(C)C)(C(=O)N[Si](C)(C)C)c1ccc(Cl)c(Cl)c1 [Beispiel 48]	überlegene Wirksamkeit gegenüber dem Stand der Technik	überlegene Wirksamkeit gegenüber dem Stand der Technik	überlegene Wirkung gegenüber dem Stand der Technik	–	–
CC(=O)NC(=O)C(O)(C(N)=O)c1ccccc1 (centres unmarked) [Beispiel 38, Phenylhydroxymalonsäureamidacetylamid]	überlegene Wirksamkeit gegenüber dem Stand der Technik	–	–	–	–
NC(=O)C(OC(=O)c1ccccc1)(C(N)=O)c1ccc(Cl)c(Cl)c1 [Beispiel 3, 3,4-Dichlorphenylbenzoyloxymalonsäurediamid]	überlegene Wirksamkeit gegenüber dem Stand der Technik	–	–	–	–
CC(=O)NC(=O)C(OC(C)=O)(C(=O)NC(C)=O)c1ccc(Cl)c(Cl)c1 [Beispiel 40, 3,4-Dichlorphenyl-acetoxy-malonsäurebisacetylamid]	überlegene Wirksamkeit gegenüber dem Stand der Technik	überlegene Wirksamkeit gegenüber dem Stand der Technik	überlegene Wirkung gegenüber dem Stand der Technik	–	–
C[Si](C)(C)OC(C(N)=O)(C(N)=O)c1ccc(Cl)c(Cl)c1 [Beispiel 47, 2-(3,4-Dichlorphenyl)-2-trimethylsilyloxy-malonsäurediamid]	überlegene Wirksamkeit gegenüber dem Stand der Technik	überlegene Wirksamkeit gegenüber dem Stand der Technik	überlegene Wirkung gegenüber dem Stand der Technik	überlegene Wirkung gegenüber dem Stand der Technik	100%
CC(=O)NC(=O)C(O)(C(N)=O)c1ccc(Cl)c(Cl)c1 (centres unmarked) [Beispiel 38a, 3,4-Dichlorphenylhydroxymalonsäureamidacetylamid]	überlegene Wirksamkeit gegenüber dem Stand der Technik	–	überlegene Wirkung gegenüber dem Stand der Technik	–	–
CNC(=O)C(O)(C(N)=O)c1ccccc1 (centres unmarked) [Beispiel 27, Phenylhydroxymalonsäureamidmethylamid]	–	–	–	überlegene Wirkung gegenüber dem Stand der Technik	–
